# Literature values as cited in patent publication US20040234544A1, “Formulation containing (lyso-)phosphatidylserine for the prevention and treatment of stress states in warm blooded animals” (priority 2001, published 2004).
# Where two headings read alike, the source gives them in different places.
# Legend:
# trained runners = conditions: 300 or 600 mg PS per day over 15 days
# persons under 40 years = persons under 40 years and persons whose brain function was average for their age
# young adults = conditions: 300 mg PS per day
substance,measurement,setting,value
phosphatidylserine,effect in stress-induced behaviour (body temperature),rats; old rats,normalization of body temperature
same,effect in lesions of the stomach wall,rats; older rats,positive effect
same,effect in lesions of the stomach wall,rats; young rats,this effect was not observed
same,effect against muscle damage,trained runners,protective effect against muscle damage
same,improvements under PS supplementation,persons under 40 years,no improvements were observed
same,mood,young adults,positive effect
same,pulse rate,young adults,positive effect
same,subjective stress sensitivity,young adults,positive effect
